Consider three compounds from patent US8981179B2, “Transgenic non-human animal and uses thereof” (Sanofi, priority 2009, dated 2015).

Assay [1] in a line: Blood glucose in unfasted CRE-luc mice. The format is in vivo, mouse. The settings on record: line 11, STZ 200 mpk, ip, unfasted mice. As to the method: The induction of CRE-Luc by AVE0010 is likely beta-cell-specific (FIG. 31). Animals were treated as described in FIG. 30. Blood glucose levels were measured by tail vein nicking on unfasted mice. Glucose levels were read on a Bayer glucometer. Glucose levels are shown as mg glucose/[…]. Fold induction is the luciferase bioimaging levels of AVE10 dosing versus the baseline signals. Blood glucose levels (BG) were increased by STZ (upper left panel). Non-fasting BG levels were reduced by AVE0010 (0.1 mg/kg, sc).

A further assay concerns beta-cell. Description: Effect of beta-cell toxin on induction of CRE-Luc by AVE0010. The settings on record: line 11, STZ 200 mpk, ip, imaged four days later after AVE0010. The format is in vivo, mouse.
Assay [2] addresses T1, prostaglandin D2 receptor 1 (DP1) (Mus musculus, UniProt P70263).
T1 construct: Primary microglia were isolated from the cortices from P2 mice; endogenous in cells; host or cells: whole splenocytes, CD4+ T cells and primary microglia (P2 cortices), CreLuc mouse line 64
T1 sequence (P70263 1-357): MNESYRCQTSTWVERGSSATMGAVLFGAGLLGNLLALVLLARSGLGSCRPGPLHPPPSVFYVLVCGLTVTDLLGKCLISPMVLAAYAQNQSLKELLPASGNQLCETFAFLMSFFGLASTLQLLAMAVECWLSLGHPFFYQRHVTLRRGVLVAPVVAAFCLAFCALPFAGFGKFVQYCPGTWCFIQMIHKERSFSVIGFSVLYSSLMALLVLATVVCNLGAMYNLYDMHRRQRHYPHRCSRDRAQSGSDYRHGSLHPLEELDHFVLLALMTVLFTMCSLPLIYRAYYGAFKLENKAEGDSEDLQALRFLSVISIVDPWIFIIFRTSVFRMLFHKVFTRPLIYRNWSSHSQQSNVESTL
Briefly: Whole splenocytes CreLuc luciferase assay, DP1 agonist. The conditions noted are these: line 64 whole splenocytes, 10 uM, 4 hours. The format is cell-based. As for the experimental part:
Whole splenocyte preps isolated from CreLuc mice were used to show the effects of general cAMP inducers such as forskolin and rolipram, as well as Gs agonists on luciferase expression (FIG. 16). Spleens were harvested from the animals in 1×HBSS (Invitrogen, Carlsbad, Calif., cat#14025). The cells were then isolated by mechanically disrupting the spleen capsule using the end of a 5 ml syringe in 5 mls of D-PBS (Invitrogen, Carlsbad, Calif., cat#14190). The cell suspension was then passed through a 70 um strainer into a 50 ml conical tube. The cells were then spun down at 800 rpm, then resuspended and incubated for 6 minutes at room temperature in 5 ml of 1× Pharm Lyse solution (BD BioSciences, cat#555899). Cells were then washed by adding 28 mls of media consisting of RPMI 1640 (Invitrogen, Carlsbad, Calif., cat#11875), 10% FCS (Invitrogen, Carlsbad, Calif., cat#16000), 1% pen/strep (Invitrogen, Carlsbad, Calif., cat#15070) and 0.1% β-mercaptoethanol (Invitrogen, Carlsbad, Calif., cat#21985). Cells were diluted to 2×10^6/ml, and 100 ul of the cells were plated per well in a 96 well white opaque plate. Half of the cells were stimulated for 24 hours with anti-CD3 antibody (BD Pharmingen, cat#553058), the other half were untreated. […] After 4 hours, 100 μl of BrightGlo (Promega, Madison, Wis., cat#E2610) and the assay was read on a TopCount luminometer. […]

Another assay has as its target T2, DP (Mus musculus, UniProt P70263).
T2 construct: Primary microglia were isolated from the cortices from P2 mice; endogenous in cells; host or cells: whole splenocytes, CD4+ T cells and primary microglia (P2 cortices), CreLuc mouse line 64
T2 sequence (P70263 1-357): T1 sequence (P70263 1-357)
Briefly: Isolated CD4+ T cells CreLuc luciferase assay, DP agonist. The format is cell-based. The conditions noted are these: line 64 CD4+ T cells, anti CD3 24 hours, 10 μM, 4 hours. As for the experimental part: The effects of different Gs agonists on luciferase levels in anti CD3 stimulated CD4+ T cells isolated from CreLuc mice was studied (FIG. 19). Whole splenocyte populations were prepared by mechanical disruption. CD4+ cells were then isolated by MACS Magnetic Separation with Positive Selection (Miltenyi Biotec cat#130-049-201). The cells, 1.5×10^5 per well, were then plated on 96 well white opaque plates and then stimulated with anti CD3 antibodies (BD Pharmingen cat#553058). After 24 hours, compounds were added for an additional 4 hours. Gs agonists for DP (BW245C), EP2 (EX00000173A) and ADβR (isoproterenol) were all used at 10 μM. Forskolin 5 μM, and rolipram 10 μM. BrightGlo (Promega, Madison, Wis., cat#E2610) was added and the assay was read on the TopCount. A 25-fold increase is observed in cells treated with forskolin and rolipram. […] The transgene was responsive to specific Gs agonists as well as general modulators of the cAMP pathway.

The next assay has as its target T3, DP1 receptor (Mus musculus, UniProt P70263).
T3 construct: Primary microglia were isolated from the cortices from P2 mice; endogenous in cells; host or cells: whole splenocytes, CD4+ T cells and primary microglia (P2 cortices), CreLuc mouse line 64
T3 sequence (P70263 1-357): T1 sequence (P70263 1-357)
Briefly: Primary microglia CreLuc luciferase assay, DP agonist. It is filed as cell-based. The settings on record: 10 μM, 4 hours. As to the method: (§1) Induction of luciferase expression in microglia isolated from CreLuc mice by the general cAMP activators, forskolin and rolipram, and an agonist for the DP receptor, BW245C was examined (FIG. 22). Primary microglia were isolated from the cortices from P2 mice in media consisting of DMEM (GIBCO Cat#11995), 10% FBS (GIBCO Cat#16140) and 1% Penicillin-Streptomycin 100× (GIBCO Cat#15140). The cells were plated in 96 well format on Poly-D-Lysine-coated plates. Cells were either left untreated or stimulated for 2 hours with 100 ng/ml LPS. Compounds were then added for an additional 4 hours before the Bright Glo assay was run. The compounds used were 5 μM forskolin, 10 μM rolipram or the combination of the two, or the Gs agonist for the DP1 receptor, BW245C at 10 μM. In unstimulated conditions, microglia are unresponsive to general cAMP modulators and the specific Gs agonist for the DP receptor. However, when microglia were stimulated with LPS, the cells became responsive to forskolin and BW245C.

Assay [3] concerns plasma cAMP. Description: In vivo stimulation of cAMP in plasma (ELISA). Further details: species or system FVB/Tac mice. The settings on record: FVB/Tac females, i.p., forskolin 5 mg/kg, rolipram 10 mg/kg, 30 minutes. As for the experimental part: FVB/Tac females were dosed with either vehicle (1% DMSO) or drugs i.p., then 30 minutes later, blood samples were collected and assayed for cAMP by ELISA (Assay Designs, Ann Arbor, Mich., cat#900-163). The drugs used are as follows: 5 mg/kg forskolin (F) (Sigma F6886), 5 mg/kg water soluble forskolin (H20F) (Calbiochem 344273), 10 mg/kg rolipram (R) (Sigma R6520) or combinations of either forskolin plus rolipram (F/R). […] Forskolin increases cAMP levels by activating adencylate cyclase while inhibitors of PDE4, such as rolipram, raise plasma cAMP by preventing hydrolysis of cAMP. A combination of rolipram and water soluble forskolin increases cAMP levels in vivo 14 fold. This combination was used to provide a large window of induction for founder screening by bioimaging, a representative study is shown in FIG. 6.
FIG. 5B is a cAMP assay on plasma levels in wild-type mice following various treatment with forskolin (F), rolipram (R) or a combination of forskolin and rolipram (F/R). […]
(ELISA stands for enzyme-linked immunosorbent assay.)

In assay [4] the test system is cAMP (CreLuc luciferase reporter). Briefly: Primary microglia CreLuc luciferase assay, general cAMP activators. It is filed as cell-based, mouse. The conditions noted are these: line 64, unstimulated, 5 μM forskolin, 10 μM rolipram, 4 hours. As for the experimental part: as §1
In assay [5] the test system is plasma cAMP. The settings on record: Balb/c mice, 10 mg/kg, blood harvested after 20 minutes; cited from earlier work.

Protocol for beta-cell: Male CRE-luc mice (line 11) were imaged before and after AVE0010 (0.1 mg/kg, sc) treatment. […] Then, the animals were treated with vehicle or STZ (200 mpk, ip). Four days later, they were imaged again after AVE0010 treatment.

As to `CN(N=O)C(=O)N[C@H]1C(O)O[C@H](CO)[C@@H](O)[C@@H]1O` (mixture of isomers) [STZ, streptozotocin], the “blood glucose levels (BG)” value in assay [1] is “increased”. Further, in the assay on beta-cell, the “luciferase induction by AVE0010 compared to vehicle group” value is “decreased luciferase induction”.

`O=C(O)CCCCCCC1C(=O)NC(=O)N1CCC(O)C1CCCCC1` (stereo not drawn) [BW245C]: the “luciferase versus DMSO only control (t-test)” value in assay [2] is listed as “Statistically significant increases”. In addition, the increase of luciferase on DP is reported as 3 fold. Moreover, at DP1 receptor (line 64, 100 ng/ml LPS 2 hours), the “luciferase response of LPS stimulated microglia” value was “responsive”. Moreover, the “luciferase response of unstimulated microglia” value on DP1 receptor (line 64, unstimulated) is “unresponsive”.

For `COc1ccc(C2CNC(=O)C2)cc1OC1CCCC1` (stereo not drawn) [rolipram], the “elevation of circulating cAMP levels vs vehicle” value with plasma cAMP [3] was “statistically significance in their elevation”. Besides, in assay [4], the “luciferase response of unstimulated microglia” value is given as “unresponsive”. The “plasma cAMP levels” value in the assay with plasma cAMP [5] is “significantly increase”.
